Measurements as given in ChEMBL document CHEMBL1143491, “Pentacyclic triterpenes. Part 1: the first examples of naturally occurring pentacyclic triterpenes as a new class of inhibitors of glycogen phosphorylases” (Bioorg Med Chem Lett, 2005).

Biological target: T1, Glycogen phosphorylase, liver form (Rattus norvegicus, UniProt P09811)
T1 sequence (P09811 whole entry): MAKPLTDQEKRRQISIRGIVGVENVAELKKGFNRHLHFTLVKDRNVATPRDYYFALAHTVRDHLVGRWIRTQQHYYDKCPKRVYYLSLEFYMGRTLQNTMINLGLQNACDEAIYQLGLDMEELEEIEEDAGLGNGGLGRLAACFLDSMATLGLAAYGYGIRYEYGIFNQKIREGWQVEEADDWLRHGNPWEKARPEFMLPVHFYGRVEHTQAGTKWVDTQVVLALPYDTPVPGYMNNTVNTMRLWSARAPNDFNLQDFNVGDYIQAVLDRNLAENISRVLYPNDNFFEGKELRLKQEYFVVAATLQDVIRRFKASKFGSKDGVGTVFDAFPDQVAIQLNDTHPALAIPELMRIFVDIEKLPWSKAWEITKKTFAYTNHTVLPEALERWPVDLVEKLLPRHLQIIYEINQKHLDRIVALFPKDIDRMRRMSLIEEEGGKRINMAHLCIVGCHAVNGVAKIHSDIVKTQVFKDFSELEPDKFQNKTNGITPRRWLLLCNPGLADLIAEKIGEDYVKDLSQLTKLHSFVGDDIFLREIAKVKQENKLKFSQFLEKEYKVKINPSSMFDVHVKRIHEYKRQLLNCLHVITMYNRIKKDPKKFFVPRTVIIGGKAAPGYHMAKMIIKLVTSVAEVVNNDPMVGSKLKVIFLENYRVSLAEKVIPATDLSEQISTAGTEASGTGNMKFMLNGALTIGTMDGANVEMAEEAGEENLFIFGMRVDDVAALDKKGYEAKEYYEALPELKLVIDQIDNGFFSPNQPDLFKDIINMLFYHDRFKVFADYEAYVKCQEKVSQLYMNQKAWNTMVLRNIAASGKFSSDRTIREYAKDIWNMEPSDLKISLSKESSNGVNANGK
Experiment: Inhibitory concentration against rat liver glycogen phosphorylase

Row | IC50 | Structure (SMILES)
1 | 99 µM | CC1(C)CC[C@]2(C(=O)O)CC[C@]3(C)C(=CC[C@@H]4[C@@]5(C)C[C@@H](O)[C@H](O)C(C)(C)[C@@H]5CC[C@]43C)[C@@H]2C1 [MASLINIC ACID]
2 | 101 µM | C[C@H]1[C@H](C)CC[C@]2(C(=O)O)CC[C@]3(C)C(=CC[C@@H]4[C@@]5(C)C[C@@H](O)[C@H](O)C(C)(C)[C@@H]5CC[C@]43C)[C@H]12 [COROSOLIC ACID]
3 | 648 µM | Cn1c(=O)c2c(ncn2C)n(C)c1=O [CAFFEINE]
